# Measured values from paper PMC10135569, “Does Enhanced Structural Maturity of hiPSC-Cardiomyocytes Better for the Detection of Drug-Induced Cardiotoxicity?” (Biomolecules, 2023).
# What was measured:
# [1] = tested on: hiPSC-CMs (iCell2 Cardiomyocytes) 2D monolayers; experiment: Contractility measurements using video imaging (ContractilityTool / MUSCLEMOTION); type: cell-based, human; conditions: Homo sapiens, Cardiomyocyte, 0.5 h, 30 min, delta over DMSO 0.1%
# Summary of the method: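 Monolayers on fibronectin or Matrix Plus coating, tested on days 5–6 in serum-free medium. Four concentrations, one per well, n = 8, with vehicle control.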
# [2] = listed in Supplementary Table S1; no reference given; cited from earlier work
# [3] = tested on: hiPSC-CMs (iCell2 Cardiomyocytes) 2D monolayers; experiment: Membrane potential (action potential) recordings with FluoVolt voltage-sensitive dye on the CellOPTIQ platform; type: cell-based, human; conditions: for activity at 1 µM / activity at 3 µM / activity at 10 µM: Homo sapiens, Cardiomyocyte, 0.5 h, 30 min, delta over DMSO 0.1%
# Summary of the method: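 iCell2 hiPSC-CM monolayers (50,000 cells/well on fibronectin or Matrix Plus, days 5–6) were loaded with FluoVolt (1:1000, 20 min, 37 °C) and imaged at 37 °C with 470 nm excitation and 510–560 nm emission sampled at 10 kHz. Spontaneous action potentials were recorded for 10 s at baseline and 30 min after drug, with one of four concentrations per well (n = 8).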
# [4] = FM monolayer, read-out: CtAmp (%DD)
# [5] = FM monolayer, read-out: CtD50 (%DD)
# [6] = MM monolayer, read-out: CtAmp (%DD)
# [7] = MM monolayer, read-out: CtD50 (%DD)
# [8] = FM monolayer, read-out: APD30 (%DD)
# [9] = FM monolayer, read-out: APD90 (%DD)
# [10] = FM monolayer, read-out: CL (%DD)
# [11] = FM monolayer, read-out: Trise (%DD)
# [12] = MM monolayer, read-out: APD30 (%DD)
# [13] = MM monolayer, read-out: APD90 (%DD)
# [14] = MM monolayer, read-out: CL (%DD)
# [15] = MM monolayer, read-out: Trise (%DD)
structure (smiles),measurement,setting,value
CC(CCc1ccc(O)cc1)NCCc1ccc(O)c(O)c1 (stereo not drawn) [Dobutamine],activity at 1 µM,[1]; [4],93 ± 10.7%
same,activity at 1 µM,[1]; [5],79 ± 1.5%
same,activity at 3 µM,[1]; [4],99 ± 8.4%
same,activity at 3 µM,[1]; [5],75 ± 2%
same,activity at 10 µM,[1]; [4],82 ± 3.2%
same,activity at 10 µM,[1]; [5],82 ± 2.2%
same,activity at 1 µM,[1]; [6],101 ± 11.6%
same,activity at 1 µM,[1]; [7],82 ± 1.1%
same,activity at 3 µM,[1]; [6],89 ± 6.3%
same,activity at 3 µM,[1]; [7],78 ± 1.2%
same,activity at 10 µM,[1]; [6],98 ± 7.5%
same,activity at 10 µM,[1]; [7],77 ± 1.3%
same,Free Cmax,[2],80 nM
same,activity at 1 µM,[3]; [8],84 ± 1.4%
same,activity at 1 µM,[3]; [9],89 ± 0.9%
same,activity at 1 µM,[3]; [10],76 ± 0.4%
same,activity at 1 µM,[3]; [11],86 ± 5.3%
same,activity at 3 µM,[3]; [8],77 ± 1.5%
same,activity at 3 µM,[3]; [9],86 ± 0.8%
same,activity at 3 µM,[3]; [10],77 ± 0.9%
same,activity at 3 µM,[3]; [11],100 ± 18.9%
same,activity at 10 µM,[3]; [8],90 ± 2%
same,activity at 10 µM,[3]; [9],91 ± 1.9%
same,activity at 10 µM,[3]; [10],81 ± 0.8%
same,activity at 10 µM,[3]; [11],131 ± 21.5%
same,activity at 1 µM,[3]; [12],89 ± 1.2%
same,activity at 1 µM,[3]; [13],91 ± 1%
same,activity at 1 µM,[3]; [14],75 ± 0.7%
same,activity at 1 µM,[3]; [15],91 ± 7.1%
same,activity at 3 µM,[3]; [12],85 ± 1.3%
same,activity at 3 µM,[3]; [13],91 ± 0.9%
same,activity at 3 µM,[3]; [14],76 ± 0.5%
same,activity at 3 µM,[3]; [15],109 ± 14.1%
same,activity at 10 µM,[3]; [12],86 ± 1.9%
same,activity at 10 µM,[3]; [13],96 ± 0.9%
same,activity at 10 µM,[3]; [14],81 ± 0.6%
same,activity at 10 µM,[3]; [15],146 ± 13.9%
same,effect on cycle length (in words),"[3]; both FM and MM monolayers, concentration not given",concentration-dependent decrease
same,electrical activity of the monolayers at higher concentrations,"[3]; higher concentrations, FM and MM",electrically quiescent
